Measurements reported in patent US20240336571A1, “NOVEL CYCLOPROPYL COMPOUNDS” (ICAGEN, LLC, priority 2021, published 2024).
pEC50: −log10 of the molar value.

Biological target: human Kv7.2 (Homo sapiens (Human), UniProt O43526)
Experiment: SyncroPatch 384 electrophysiology, activation of Kv7.2 in CHO cells
Assay type: cell-based
Details: for pEC50: CHO cells stably expressing human Kv7.2, potassium current at -90 mV repolarizing step, in presence of zinc pyrithione; for Emax: CHO, Kv7.2 activation max %, relative to 30 μM ML-213 max activation
Protocol: The potency of Kv7 potentiators was determined using the SyncroPatch 384 (Nanion) high throughput electrophysiology platform.
CHO cells stably expressing either human Kv7.2, Kv7.4 or Kv7.5/7.3 under a constitutive CMV promoter were used for these studies. Cells were maintained in F12 Hams+1 mM L-glutamine (Hyclone) supplemented with 10% FBS (Sigma), 0.3×NEAA (Non-essential Gamino-acids) and 400 ug/ml G418 at 37° C. in 5% CO2. Cells were cultured in T-225 flasks (Nunc) for 2-3 days to reach 85-95% confluence prior to electrophysiological recording.
Earle's balanced salt solution (in mM): 135 NaCl, 5.4 KCl, 5 Glucose, 2 CaCl2, 1 MgCl2, 5 HEPES, pH 7.4. Seal enhancer solution (in mM): 90 NaCl, 3 KCl, 35 CaCl2, 10 MgCl2, 10 HEPES, pH 7.4. Extracellular recording solution (in mM): 71 NaCl, 70 NMDG, 13 KCl, 5 Glucose, 2 CaCl2, 1 MgCl2, 10 HEPES, pH 7.4. Intracellular recording solution (in mM): 130 KF, 20 KCl, 4 EGTA, 10 HEPES, 2 EDTA, 0.01 Escin, pH 7.2.
Cells were harvested for electrophysiological recording upon reaching appropriate confluence. Cells were first washed in DPBS (Hyclone, Cat #SH30028.03) and then 2 ml of Accutase (MP Biomedicals #1000449) was added at 28° C. until ˜90% of cells were suspended. F12 HAM's media+1 mM L-glutamine (Hyclone, SH30026.02) was then added to the flask to dilute the accutase. Cells were then triturated until a single cell suspension was achieved, a cell count was performed, and cells were centrifuged for 2 min. at 1,000 rpm. Media was then aspirated, and cells were resuspended in Earle's balanced salt solution to a concentration of 0.75×10^6 cells/ml and allowed to recover for 25 min at 10° C.
At the beginning of each assay, 20 μl of cell suspension was dispensed into each well of a multi-hole 384-well SyncroPatch chip by the onboard pipettor. Cell sealing was initiated, and seal enhancer solution was added to facilitate seal formation. Upon completion of sealing, cells were washed 3 times with extracellular recording solution and the assay voltage protocol was started. Human Kv7.2, Kv7.4 or Kv7.5/7.3 channels were evaluated using a voltage protocol in which cells were voltage-clamped at a holding potential of −60 mV. Potassium currents were continuously activated with a series of three voltage steps to −30 mV for 3 seconds, 40 mV for 1 second and −90 mV for 4 seconds with 12 seconds between successive voltage sweeps. Potassium currents were measured from the −90 mV repolarizing step. Baseline current was assessed for 3.5 minutes prior to the addition of 5.6 μM zinc pyrithione (1 μM for Kv7.4). Kv7.2, Kv7.4 or Kv7.5/7.3 current in the presence of zinc pyrithione was acquired over five minutes to allow channels to reach steady state activity prior to addition of test agents. Channel activity was monitored for three minutes preceding the addition of 30 μM ML-213 (3 minutes) to achieve maximum activation. 150 mM TEA with 10 μM XE-991 was applied for 2 minutes to measure the leak current during maximum inhibition of Kv7.2, Kv7.4 or Kv7.5/7.3 channels.
Data were collected on the SyncroPatch platform using PatchControl software (Nanion) and processed and analyzed using DataControl Software (Nanion). Percent activation was calculated from potassium current as follows: The average current for the 5 sweeps in the presence of zinc pyrithione immediately preceding test agent addition was taken as the ‘control’ data. Likewise, the average potassium current in the presence of test agents 5 sweeps immediately preceding addition of 30 μM ML-213 was determined for ‘drug’ data. The average potassium current 5 sweeps immediately prior to addition of 150 mM TEA+10 μM XE-991 was determined for ‘max activation’ data while average currents from 5 sweeps immediately following addition of TEA was determined for ‘max inhibition’ data. Percent activation for each of the 384-wells of a sealchip was calculated as ((‘drug’−‘max inhibition’)/(‘max activation’−‘max inhibition’))*100 with Pipeline Pilot (Accelrys). […]

| pEC50 | Emax | Structure (SMILES) |
| --- | --- | --- |
| 5.87 | 62% | O=C(NCc1ccnc(OC(F)(F)F)c1)N[C@@H]1C[C@H]1c1ccccc1 [Example 28, 1-[(1R,2S)-2-phenylcyclopropyl]-3-[[2-(trifluoromethoxy)pyridin-4-yl]methyl]urea] |
| 5.52 | 40% | O=C(NCc1ccnc(C2COC2)c1)N[C@@H]1C[C@H]1c1ccccc1 [Example 32] |
| 7.00 | 71% | O=C(NCc1ccnc(OC(F)F)c1)N[C@@H]1C[C@H]1c1ccccc1 [Example 7, 1-[[2-(difluoromethoxy)pyridin-4-yl]methyl]-3-[(1R,2S)-2-phenylcyclopropyl]urea] |
| 6.21 | 47% | [2H]C([2H])(NC(=O)N[C@@H]1C[C@H]1C(F)(F)F)c1ccnc(OC(F)F)c1 (racemic) [Example 50, 1-[dideuterio-[2-(difluoromethoxy)pyridin-4-yl]methyl]-3-[rac-(1R,2R)-2-(trifluoromethyl)cyclopropyl]urea] |
| 6.18 | 64% | CC(C)Oc1cc(CNC(=O)N[C@@H]2C[C@H]2c2ccccc2)ccn1 [Example 6, 1-[(1R,2S)-2-phenylcyclopropyl]-3-[(2-propan-2-yloxypyridin-4-yl)methyl]urea] |
| 6.04 | 63% | O=C(NCc1ccnc(-c2cnco2)c1)N[C@@H]1C[C@H]1C1CCCCC1 (racemic) [Example 23, 1-[[2-(1,3-oxazol-5-yl)pyridin-4-yl]methyl]-3-[rac-(1R,2S)-2-cyclohexylcyclopropyl]urea] |
| 6.30 | 44% | O=C(NCc1ccnc(-n2cnc(C(F)(F)F)c2)c1)N[C@@H]1C[C@H]1c1ccccc1 [Example 31, 1-[(1R,2S)-2-phenylcyclopropyl]-3-[[2-[4-(trifluoromethyl)imidazol-1-yl]pyridin-4-yl]methyl]urea] |
| 7.15 | 78% | O=C(NCc1ccnc(-n2ccc(C(F)(F)F)n2)c1)N[C@@H]1C[C@H]1c1ccccc1 [Example 39, 1-[(1R,2S)-2-phenylcyclopropyl]-3-[[2-[3-(trifluoromethyl)pyrazol-1-yl]pyridin-4-yl]methyl]urea] |
| 6.05 | 51% | C[C@@H]1C[C@H]1NC(=O)NCc1ccnc(OC(F)F)c1 (racemic) [Example 46, 1-[[2-(difluoromethoxy)pyridin-4-yl]methyl]-3-[rac-(1R,2R)-2-methylcyclopropyl]urea] |
| 6.55 | 52% | O=C(NCc1cc(OCC(F)(F)F)ncn1)N[C@@H]1C[C@H]1C(F)(F)F (racemic) [Example 51, 1-[rac-(1R,2R)-2-(trifluoromethyl)cyclopropyl]-3-[[6-(2,2,2-trifluoroethoxy)pyrimidin-4-yl]methyl]urea] |
| 5.99 | 58% | C[C@H]1[C@H](NC(=O)NCc2ccnc(OC(F)F)c2)C1(F)F (racemic) [Example 42, 1-[[2-(difluoromethoxy)pyridin-4-yl]methyl]-3-[rac-(1R,3R)-2,2-difluoro-3-methylcyclopropyl]urea] |
| 6.44 | 69% | COC[C@@H](Oc1cc(CNC(=O)N[C@@H]2C[C@H]2C(F)(F)F)ccn1)C(F)(F)F (mixture of isomers) [Example 53, 1-[[2-[(2R)-1,1,1-trifluoro-3-methoxypropan-2-yl]oxypyridin-4-yl]methyl]-3-[rac-(1R,2R)-2-(trifluoromethyl)cyclopropyl]urea] |
| 6.68 | 72% | C[C@H](NC(=O)N[C@@H]1C[C@H]1c1ccccc1)c1ccnc(OC(F)F)c1 [Example 30, 1-((S)-1-(2-(difluoromethoxy)pyridin-4-yl)ethyl)-3-((1R,2S)-2-phenylcyclopropyl)urea] |
| 7.15 | 71% | O=C(NCc1ccnc(OCC(F)(F)F)c1)N[C@@H]1C[C@H]1c1ccccc1 [Example 14, 1-[(1R,2S)-2-phenylcyclopropyl]-3-[[2-(2,2,2-trifluoroethoxy)pyridin-4-yl]methyl]urea] |
| 6.64 | 54% | O=C(NCc1ccnc(OC(F)F)c1)N[C@@H]1C[C@H]1C(F)(F)F [Example 41, 1-[[2-(difluoromethoxy)pyridin-4-yl]methyl]-3-[(1R,2R)-2-(trifluoromethyl)cyclopropyl]urea] |
| 5.81 | 77% | O=C(NCc1cccc(Cl)n1)N[C@@H]1C[C@H]1C1CCCCC1 (racemic) [Example 3, 1-[(6-chloropyridin-2-yl)methyl]-3-[rac-(1R,2S)-2-cyclohexylcyclopropyl]urea] |
| 5.75 | 61% | O=C(NCc1ccnc(Cl)c1)N[C@@H]1C[C@H]1C1CCCCC1 (racemic) [Example 17, 1-[(2-chloropyridin-4-yl)methyl]-3-[rac-(1R,2S)-2-cyclohexylcyclopropyl]urea] |
| 6.17 | 69% | O=C(NCc1ccnc(-n2cccn2)c1)N[C@@H]1C[C@H]1c1ccccc1 (racemic) [Example 12, 1-[(2-pyrazol-1-ylpyridin-4-yl)methyl]-3-[rac-(1R,2S)-2-phenylcyclopropyl]urea] |
| 5.87 | 74% | O=C(NCc1ccnc(-n2cccn2)c1)N[C@@H]1C[C@H]1c1ccccc1 [Example 13, 1-[(1R,2S)-2-phenylcyclopropyl]-3-[(2-pyrazol-1-ylpyridin-4-yl)methyl]urea] |
| 5.33 | 73% | N#Cc1ccnc(CNC(=O)N[C@@H]2C[C@H]2c2ccccc2)c1 [Example 1, 1-[(4-cyanopyridin-2-yl)methyl]-3-[(1R,2S)-2-phenylcyclopropyl]urea] |
| 5.98 | 60% | O=C(NCc1ccnc(OC2CCC2)c1)N[C@@H]1C[C@H]1c1ccccc1 [Example 25, 1-[(2-cyclobutyloxypyridin-4-yl)methyl]-3-[(1R,2S)-2-phenylcyclopropyl]urea] |
| 5.42 | 42% | O=C(NCc1ccnc(OC(F)F)n1)N[C@@H]1C[C@H]1C(F)(F)F [Example 49, 1-[[2-(difluoromethoxy)pyrimidin-4-yl]methyl]-3-[(1R,2R)-2-(trifluoromethyl)cyclopropyl]urea] |
| 5.47 | 78% | COc1cc(CNC(=O)N[C@@H]2C[C@H]2c2ccccc2)ccn1 [Example 9, 1-[(2-methoxypyridin-4-yl)methyl]-3-[(1R,2S)-2-phenylcyclopropyl]urea] |
| 6.14 | 53% | O=C(NCc1ccnc(C(F)(F)F)c1)N[C@@H]1C[C@H]1c1ccccc1 [Example 22, 1-[(1R,2S)-2-phenylcyclopropyl]-3-[[2-(trifluoromethyl)pyridin-4-yl]methyl]urea] |
| 6.06 | 77% | O=C(NCc1ccnc(OC2CCOCC2)c1)NC1CC1C1CCCCC1 (centres unmarked) [Example 45, 1-(2-cyclohexylcyclopropyl)-3-[[2-(oxan-4-yloxy)pyridin-4-yl]methyl]urea] |
